According to BindingDB's records for doi:10.1016/j.bmc.2018.04.029 (Shenyang Pharmaceutical University, 2018):
pEC50: −log10 of the molar value.

Assay: Inhibition of Hepatitis C virus genotype 1b NS5B RNA-dependent-RNA polymerase assessed as reduction in viral replication after 72 hrs by indirect immunofluorescence assay

Structure (SMILES) | pEC50
COc1cccc(-n2cc(Cn3ccc4nc(-c5ccccc5F)nc-4c3)nn2)c1 | 7.89
Fc1ccc(-n2cc(Cn3ccc4nc(-c5ccccc5F)nc-4c3)nn2)cc1 | 7.46
Fc1ccccc1-c1nc2ccn(Cc3cn(-c4ccccc4)nn3)cc-2n1 | 7.64
Cc1cc(C)n2nc(Cn3cc(Cn4ccc5nc(-c6ccccc6F)nc-5c4)nn3)nc2n1 | 7.08
Fc1ccccc1-c1nc2ccn(Cc3cn(Cc4cn5cccnc5n4)nn3)cc-2n1 | 7.68
O=c1ccccn1Cc1ccc(-n2cc(Cn3ccc4nc(-c5ccccc5F)nc-4c3)nn2)cc1 | 7.03
Fc1ccccc1-c1nc2ccn(Cc3cn(-c4ccccc4F)nn3)cc-2n1 | 7.28
CS(=O)(=O)Nc1ccc(-n2cc(Cn3ccc4nc(-c5ccccc5F)nc-4c3)nn2)cc1 | 7.74
COc1ccc(-n2cc(Cn3ccc4nc(-c5ccccc5F)nc-4c3)nn2)cc1 | 8.92
Cc1cc(C)n2cc(Cn3cc(Cn4ccc5nc(-c6ccccc6F)nc-5c4)nn3)nc2n1 | 7.43
O=c1ncccn1Cc1ccc(-n2cc(Cn3ccc4nc(-c5ccccc5F)nc-4c3)nn2)cc1 | 7.02
